pEC50, pIC50, pKi: −log10 of the molar value. Where two headings read alike, the source gives them in different places.
Columns and labels:
LXR α LBD protein [1] = target: T1, LXR α LBD protein (Homo sapiens (Human), UniProt Q13133); assay: LXR α radioligand binding assay (SPA, competition with [3H]TO901317); conditions: read-out: LXRα Binding Ki
LXR β LBD protein [2] = target: T2, LXR β LBD protein (Homo sapiens (Human), UniProt P55055); assay: biochemical; assay type: binding; conditions: read-out: LXRβ Binding Ki
Target sequence in this assay (P55055 222-460 limits assumed): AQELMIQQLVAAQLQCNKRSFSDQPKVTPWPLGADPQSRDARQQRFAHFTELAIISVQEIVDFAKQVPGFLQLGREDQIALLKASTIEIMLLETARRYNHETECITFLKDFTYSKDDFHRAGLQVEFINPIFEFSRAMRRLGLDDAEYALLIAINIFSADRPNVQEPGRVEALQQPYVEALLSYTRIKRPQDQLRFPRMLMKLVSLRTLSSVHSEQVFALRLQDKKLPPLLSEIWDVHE

[3] = target: T3, Gal4 DNA binding domain fused to the LBD of LXRα in HEK293 cells (Homo sapiens (Human), UniProt Q13133); assay: LXR luciferase transcriptional reporter gene assay, agonist mode, LXRα; assay type: cell-based; conditions: for pEC50: read-out: Cell LXRα EC50
T3 sequence (Q13133 209-447): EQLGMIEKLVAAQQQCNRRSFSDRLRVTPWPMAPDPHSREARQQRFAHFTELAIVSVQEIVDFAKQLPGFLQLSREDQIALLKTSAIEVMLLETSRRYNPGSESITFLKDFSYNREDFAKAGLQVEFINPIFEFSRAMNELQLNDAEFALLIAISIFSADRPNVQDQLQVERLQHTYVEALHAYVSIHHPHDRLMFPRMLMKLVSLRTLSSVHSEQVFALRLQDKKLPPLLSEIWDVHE

[4] = target: T4, Gal4 DNA binding domain fused to the LBD of LXRβ in HEK293 cells (Homo sapiens (Human), UniProt P55055); assay: cell-based
T4 sequence (P55055 222-460 limits assumed): as the sequence (P55055 222-460 limits assumed) above

[5] = target: T3, Gal4 DNA binding domain fused to the LBD of LXRα in HEK293 cells; assay: LXR luciferase transcriptional reporter gene assay, antagonist mode (200 nM T0901317), LXRα; assay type: cell-based; conditions: for pIC50: read-out: Cell LXRα IC50
[6] = target: T4, Gal4 DNA binding domain fused to the LBD of LXRβ in HEK293 cells; assay: cell-based; assay type: cell-based
LXR α LBD protein [7] = target: T1, LXR α LBD protein; assay: Human LXRα coactivator recruitment FRET assay, agonist mode; assay type: biochemical; conditions: agonist mode
Outline: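 LXRα- or LXRβ-LBD at 10 nM (2×) mixed with compound in DMSO, then fluorescein-SRC2-3 peptide 200 nM and Tb-anti-GST antibody 20 nM (4×) added; 2 h at rt. Time-resolved FRET read, 100 µs delay, 200 µs window; EC50 from four-parameter fit of percent control.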

LXR β LBD protein [8] = target: T2, LXR β LBD protein; assay: biochemical; assay type: biochemical
Target sequence in this assay (P55055 222-460): as the sequence (P55055 222-460 limits assumed) above

[9] = agonist mode, read-out: Cell LXRβ EC50
[10] = antagonist mode, 200 nM T0901317, HEK293 reporter gene assay
[11] = antagonist mode, 200 nM T0901317, HEK293 reporter gene assay, read-out: Cell LXRβ IC50
[12] = Biological Test Example 2, agonist mode
[13] = Biological Test Example 2, agonist mode, read-out: Cell LXRβ EC50

T1 sequence (Q13133 209-447): as the sequence (Q13133 209-447) above

Compound | pKi (LXR α LBD protein [1]) | pKi (LXR β LBD protein [2]) | Cell LXRα efficacy [3] | pEC50 [3] | pEC50 [4] | Cell LXRβ efficacy ([4]; agonist mode) | Cell LXRα efficacy [5] | pIC50 [5] | pIC50 [6] | Cell LXRβ efficacy [6, 10] | pEC50 ([3]; agonist mode) | pIC50 [5, 10] | further results
CC(O)c1cnc(N2CCN(c3ccc(F)c(S(C)(=O)=O)c3)C[C@H]2C(C)C)nc1C(F)(F)F (mixture of isomers) [Cpd No 12-1, 1-(2-((R)-4-(4-fluoro-3-(methylsulfonyl)phenyl)-2-isopropylpiperazin-1-yl)-4-(trifluoromethyl)pyrimidin-5-yl)ethan-1-ol] | 6.64 | 7.64 | 969 (46) % | 6.01 | 6.81 | 154 (37) % | 8047 (105) % | 5.09 | 6.60 | – | – | – | –
CS(=O)(=O)c1cccc(N2CCN(C[C@H]3CC[C@@](C)(O)CC3)[C@@H](c3ccccc3)C2)c1 (single isomer, unassigned) [48-5] | 5.90 | 6.91 | – | < 4.70 | – | – | 1169 (61) % | 5.93 | – | 93% | – | – | pEC50 [4, 9]: < 4.70; pIC50 [6, 11]: 6.93
NS(=O)(=O)c1cccc(N2CCN(C[C@H]3CC[C@@H](C(F)F)CC3)[C@@H](c3ccccc3)C2)c1 (single isomer, unassigned) [48-23] | 7.03 | 7.96 | 319 (43) % | 6.50 | – | 14% | 4955 (123) % | 5.30 | – | 91% | – | – | pEC50 [4, 9]: 7.01; pIC50 [6, 11]: 6.39
CS(=O)(=O)c1cccc(N2CCN(C[C@@H]3C[C@@H]4[C@H](C3)C4(F)F)[C@@H](c3ccccc3)C2)c1 (single isomer, unassigned) [48-66] | 6.09 | – | 2518 (40) % | 5.60 | – | – | 7360 (100) % | 5.13 | – | 81% | – | – | pKi (LXR β LBD protein [2]; Biological Test Example 1): 6.99; Cell LXRβ efficacy [4, 12]: 20%; pEC50 [4, 13]: 6.15; pIC50 [6, 11]: 6.08
CS(=O)(=O)c1cccc(N2CCN(C[C@H]3CC[C@]4(CC3)CC4(F)F)[C@@H](c3ccccc3)C2)c1 (single isomer, unassigned) [48-71] | 7.30 | – | 236 (57) % | 6.63 | – | – | – | < 5.00 | – | 54% | – | – | pKi (LXR β LBD protein [2]; Biological Test Example 1): 8.00; Cell LXRβ efficacy [4, 12]: 25%; pEC50 [4, 13]: 7.12; pIC50 [6, 11]: 6.79
CC[C@@H](O)c1cnc(N2CCN(c3ccc(F)c(S(C)(=O)=O)c3)C[C@H]2C(C)C)nc1C(F)(F)F (single isomer, unassigned) [Cpd No 12-7] | 7.09 | 8.05 | 862 (25) % | – | 7.31 | 49 (15) % | – | – | 6.98 | 104 (87) % | 6.06 | 6.16 | –
CC(C)(O)[C@@H]1CN(c2cccc(S(C)(=O)=O)c2)CCN1c1nccc(C(F)(F)F)n1 [7-24, (S)-2-(4-(3-(methylsulfonyl)phenyl)-1-(4-(trifluoromethyl)pyrimidin-2-yl)piperazin-2-yl)propan-2-ol] | 5.99 | 7.37 | 1586 (50) % | 5.80 | 6.56 | – | – | – | 8.05 | – | – | – | Cell LXRβ efficacy [4]: 275 (37) %; Cell LXRβ efficacy [6]: 9 (64) %; pEC50 (LXR α LBD protein [7]): 6.34; FRET LXRα efficacy (LXR α LBD protein [7]): 83%; FRET LXRβ efficacy (LXR β LBD protein [8]): 14 (74) %; pEC50 (LXR β LBD protein [8]; read-out: FRET LXRβ EC50): 7.85
CNS(=O)(=O)c1cc(N2CCN(c3ncc(C(C)(C)O)c(C(F)(F)F)n3)[C@H](C(C)C)C2)ccc1F [10-3, (R)-2-fluoro-5-(4-(5-(2-hydroxypropan-2-yl)-4-(trifluoromethyl)pyrimidin-2-yl)-3-isopropylpiperazin-1-yl)-N-methylbenzenesulfonamide] | 6.87 | 8.30 | 646 (35) % | – | 7.16 | 69 (24) % | 2003 (83) % | – | 6.62 | – | 6.19 | 5.70 | –
CC(C)[C@@H]1CN(c2ccc(F)c(S(C)(=O)=O)c2)CCN1c1ncc(C(=O)N2CCOCC2)c(C(F)(F)F)n1 [17-8, (R)-(2-(4-(4-fluoro-3-(methylsulfonyl)phenyl)-2-isopropylpiperazin-1-yl)-4-(trifluoromethyl)pyrimidin-5-yl)(morpholino)methanone] | – | 6.51 | – | – | < 4.70 | – | – | – | 6.27 | 538 (91) % | < 4.70 | 5.64 | –
COCCN(C)C(=O)c1cnc(N2CCN(c3ccc(F)c(S(C)(=O)=O)c3)C[C@H]2C(C)C)nc1C(F)(F)F [17-12, (R)-2-(4-(4-fluoro-3-(methylsulfonyl)phenyl)-2-isopropylpiperazin-1-yl)-N-(2-methoxyethyl)-N-methyl-4-(trifluoromethyl)pyrimidine-5-carboxamide] | – | 6.68 | – | < 4.70 | < 4.70 | – | – | 5.94 | 6.53 | – | – | – | –
CCOC(=O)CCN(C)C(=O)c1cnc(N2CCN(c3ccc(F)c(S(C)(=O)=O)c3)C[C@H]2C(C)C)nc1C(F)(F)F [17-18, ethyl (R)-3-(2-(4-(4-fluoro-3-(methylsulfonyl)phenyl)-2-isopropylpiperazin-1-yl)-N-methyl-4-(trifluoromethyl)pyrimidine-5-carboxamido)propanoate] | – | 6.89 | – | – | < 4.70 | – | 1159 (92) % | – | 6.73 | – | < 4.70 | 5.94 | Cell LXRβ efficacy [6]: 186 (98) %
CC(C)[C@@H]1CN(c2ccc(F)c(S(C)(=O)=O)c2)CCN1c1ncc(CN2CCOCC2)c(C(F)(F)F)n1 [Cpd No 15-5, (R)-4-((2-(4-(4-fluoro-3-(methylsulfonyl)phenyl)-2-isopropylpiperazin-1-yl)-4-(trifluoromethyl)pyrimidin-5-yl)methyl)morpholine] | – | 7.44 | 2592 (12) % | – | 7.44 | 36 (3) % | – | – | 6.66 | 221 (105) % | 5.59 | 5.93 | –
CC(C)[C@@H]1CN(c2ccc(CO)c(S(C)(=O)=O)c2)CCN1c1ncc(C(N)=O)c(C(F)(F)F)n1 [Cpd No 17-25, (R)-2-(4-(4-(hydroxymethyl)-3-(methylsulfonyl)phenyl)-2-isopropylpiperazin-1-yl)-4-(trifluoromethyl)pyrimidine-5-carboxamide] | – | – | 1127 (18) % | – | 7.34 | 46 (13) % | 3652 (98) % | – | 6.44 | 359 (99) % | 5.95 | 5.44 | –
CC(C)[C@@H]1CN(c2cc(F)c(CO)c(S(C)(=O)=O)c2)CCN1c1ncc(C(N)=O)c(C(F)(F)F)n1 [Cpd No 17-28, (R)-2-(4-(3-fluoro-4-(hydroxymethyl)-5-(methylsulfonyl)phenyl)-2-isopropylpiperazin-1-yl)-4-(trifluoromethyl)pyrimidine-5-carboxamide] | – | – | 913 (9) % | – | 7.70 | 20 (9) % | – | – | 6.74 | 182 (98) % | 6.04 | 5.59 | –

Reference: US10144715B2, “Piperazine derivatives as liver X receptor modulators” (priority 2014, dated 2018)
